By IC50 is commonly meant the midpoint of a concentration-inhibition curve.

Like-named read-outs stand apart in the source and are kept apart here.

In the test the target is T1, hM5 (Homo sapiens, UniProt P08912).
T1 construct: expressed in transfected cells
T1 sequence (P08912 1-532): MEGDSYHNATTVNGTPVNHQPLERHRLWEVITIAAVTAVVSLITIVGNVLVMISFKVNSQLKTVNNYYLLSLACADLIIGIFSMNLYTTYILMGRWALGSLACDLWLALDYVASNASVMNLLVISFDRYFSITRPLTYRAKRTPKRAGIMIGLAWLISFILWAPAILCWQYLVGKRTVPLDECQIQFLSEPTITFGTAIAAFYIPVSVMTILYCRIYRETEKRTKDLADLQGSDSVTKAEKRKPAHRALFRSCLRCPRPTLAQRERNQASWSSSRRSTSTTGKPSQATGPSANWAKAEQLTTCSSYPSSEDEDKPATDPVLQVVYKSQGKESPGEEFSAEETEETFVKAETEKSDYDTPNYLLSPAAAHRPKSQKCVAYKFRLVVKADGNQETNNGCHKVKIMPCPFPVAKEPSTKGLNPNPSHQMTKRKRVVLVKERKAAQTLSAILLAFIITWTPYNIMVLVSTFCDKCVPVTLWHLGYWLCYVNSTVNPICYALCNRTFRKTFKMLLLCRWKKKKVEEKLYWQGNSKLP
Put plainly: Calcium mobilization concentration-response (IC50 vs EC80 acetylcholine), CHO hM5. It is filed as cell-based. The conditions noted are these: CELL LINE hM5, read-out: IC50. Here is the method:
Initial, single point (10 μM) compound characterization was performed in stable Chinese Hamster Ovary (CHO) cell lines constitutively expressing human M5 receptors. These were plated at 15,000 cells per 20 μL per well in Greiner 384-well black-walled, TC-treated, clear-bottomed plates (Fisher) in Ham's F12 medium supplemented with 10% FBS and 20 mM HEPES. Cells were incubated overnight at 37° C. under 5% CO2. The following day, medium was exchanged with assay buffer (Hank's Balanced Salt Solution supplemented with 20 mM HEPES and 2.5 mM Probenecid, pH 7.4) leaving 20 μL of assay buffer in each well. […] The cells were then incubated 50 minutes at 37° C. under 5% CO2. The assay buffer plus dye was then exchanged with fresh assay buffer leaving a volume of 20 μL in each well. Test compounds were diluted into assay buffer to a 2X (20 μM) concentration in 0.2% dimethylsulfoxide (DMSO) in columns 3-22 with matching DMSO concentration in columns 1, 2, 23, and […]; compounds were added to the assay for a final concentration of 10 μM and a final DMSO concentration of 0.1%.
Either an FDSS (Hamamatsu) or Panoptic (WaveFront Biosciences) kinetic imaging plate reader was used for assay execution and measurement of calcium flux. After establishing baseline fluorescence, test compounds (20 μL) were added to the cells using the reader's integrated pipettor and allowed to equilibrate for 140 seconds before addition of the […] concentration of acetylcholine (10 μL) along with vehicle in selected DMSO-only wells in the outer two columns . […] The raw fluorescence data from each well was normalized to the corresponding initial fluorescence reading (static ratio). The maximum fluorescence value following each addition was determined and the minimum value within that same timeframe was subtracted for each well then normalized to the average of the ECffiax maximum-minimum response, providing a % AChmax value for each addition for each well. The single point values represent mean values determined within the ECsu addition timeframe obtained from at least three independent determinations performed in triplicate or greater (error bars represent +/−SEM) unless otherwise specified.
CHO cells stably expressing hM1, hM2/Gqi5, hM3, hM4/Gqi5, hM5, rM1/Gqi5, rM3, rM4/Gqi5, or rM5 were plated in the manner described above. […] FDSS protocols were carried out as described above; the static ratio was calculated and the minimum response subtracted from the maximum response within the timeframe of each addition. This max-min response was then normalized to the maximum acetylcholine response. Calculation of IC50 was performed using the percent maximum acetylcholine response for the EC80 addition through the Vortex and Studies modules of the Dotmatics data management software. Results are stored in the Dotrnatics database and an audit trail of any changes to their analysis is generated. Data shown represent mean values obtained from at least three independent determinations performed in triplicate or greater (error bars represent±SEM) unless otherwise specified.

Where [1] appears, read: calcium mobilization, EC80 acetylcholine addition.

In the case of `Cc1cc2ncnn2nc1C1CCN(S(=O)(=O)c2c(C)n[nH]c2C)CC1` [Compound 180, 6-(1-((3,5-dimethyl-1H-pyrazol-4-yl)sulfonyl)piperidin-4-yl)-7-methyl-[1,2,4]triazolo[1,5-b]pyridazine], under setting [1], the IC50 was above 10000 nM. On the same count and under the same terms, next, `O=S(=O)(c1ccc2ncsc2c1)N1CCC(c2cc(-c3ccco3)n[nH]2)CC1` [Compound 6, 6-((4-(3-(furan-2-yl)-1H-pyrazol-5-yl)piperidin-1-yl)sulfonyl)benzo[d]thiazole]: above 10000 nM; `Cc1cc2ncnn2nc1C1CCN(S(=O)(=O)c2cnn3c2CCC3)CC1` [Compound 187, 6-(1-((5,6-dihydro-4H-pyrrolo[1,2-b]pyrazol-3-yl)sulfonyl)piperidin-4-yl)-7-methyl-[1,2,4]triazolo[1,5-b]pyridazine]: 23 nM; `Cc1nn(C)c(C(F)(F)F)c1S(=O)(=O)N1CCC(c2cn3ncnc3c(F)c2C)CC1` [Compound 266, 6-(1-((1,3-dimethyl-5-(trifluoromethyl)-1H-pyrazol-4-yl)sulfonyl)piperidin-4-yl)-8-fluoro-7-methyl-[1,2,4]triazolo[1,5-a]pyridine]: 284 nM. As to `Cc1nnc(S(=O)(=O)N2CCC(c3cn4ncnc4cc3Cl)CC2)s1` [Compound 540, 2-((4-(7-Chloro[1,2,4]triazolo[1,5-a]pyridin-6-yl)piperidin-1-yl)sulfonyl)-5-methyl-1,3,4-thiadiazole], the IC50 (vs EC80 acetylcholine) stood at 28 nM. Turning to `O=S(=O)(c1ccc(Cl)nc1)N1CCC(c2cc3cc[nH]c3cn2)CC1` [Compound 94, 5-(1-((6-chloropyridin-3-yl)sulfonyl)piperidin-4-yl)-1H-pyrrolo[2,3-c]pyridine], the IC50 under setting [1] is above 10000 nM. Regarding `Cc1cnccc1C1CCN(S(=O)(=O)c2cnn(C)c2Cl)CC1` [Compound 429, 4-(1-((5-chloro-1-methyl-1H-pyrazol-4-yl)sulfonyl)piperidin-4-yl)-3-methylpyridine], the IC50 (vs EC80 acetylcholine) is 398 nM. With `O=S(=O)(c1ccc2c(c1)CCO2)N1CCC(c2cc(-c3ccco3)n[nH]2)CC1` [Compound 4, 1-((2,3-dihydrobenzofuran-5-yl)sulfonyl)-4-(3-(furan-2-yl)-1H-pyrazol-5-yl)piperidine], under setting [1], the concentration for half-maximal inhibition (IC50) was above 10000 nM. Same read-out and setting: next, `COc1ccc(S(=O)(=O)N2CCC(c3nn4ccnc4cc3C)CC2)cn1` [Compound 42, 6-(1-((6-methoxypyridin-3-yl)sulfonyl)piperidin-4-yl)-7-methylimidazo[1,2-b]pyridazine]: above 10000 nM; `O=S(=O)(c1ccc2c(c1)CCO2)N1CC[C@@H](c2cn(-c3ccc4scnc4c3)nn2)C1` [Compound 59, (R)-5-(4-(1-((2,3-Dihydrobenzofuran-5-yl)sulfonyl)pyrrolidin-3-yl)-1H-1,2,3-triazol-1-yl)benzo[d]thiazole]: above 10000 nM.

For the molecule `Cc1cc2ncnn2cc1C1CCN(S(=O)(=O)c2cc3c(cc2C)OCC3C)CC1` (centres unmarked) [Compound 100, 6-(1-((3,6-dimethyl-2,3-dihydrobenzofuran-5-yl)sulfonyl)piperidin-4-yl)-7-methyl-[1,2,4]triazolo[1,5-a]pyridine], the IC50 under setting [1] was determined as 39 nM. The same measure, in the same setting: next, `Cc1cc2ncnn2cc1C1CCN(S(=O)(=O)c2cnc3c(c2)C(C)CO3)CC1` (centres unmarked) [Compound 136, 3-methyl-5-((4-(7-methyl-[1,2,4]triazolo[1,5-a]pyridin-6-yl)piperidin-1-yl)sulfonyl)-2,3-dihydrofuro[2,3-b]pyridine]: 235 nM.

Consider `COC1(c2cn3ncnc3cc2C)CCN(S(=O)(=O)c2cnn(C)c2Cl)CC1` [Compound 415, 6-(1-((5-chloro-1-methyl-1H-pyrazol-4-yl)sulfonyl)-4-methoxypiperidin-4-yl)-7-methyl-[1,2,4]triazolo[1,5-a]pyridine], for which the IC50 (vs EC80 acetylcholine) was above 10000 nM. As to `Cc1cc2ncnn2cc1C1CCN(S(=O)(=O)c2cc3c(cc2F)OCC3C)CC1` (centres unmarked) [Compound 103, 6-(1-((6-fluoro-3-methyl-2,3-dihydrobenzofuran-5-yl)sulfonyl)piperidin-4-yl)-7-methyl-[1,2,4]triazolo[5-a]pyridine], under setting [1], the IC50 came out at 195 nM.

Values taken from patent US20230183237A1, “COMPETITIVE AND NONCOMPETITIVE INHIBITORS OF THE MUSCARINIC ACETYLCHOLINE RECEPTOR M5” (Vanderbilt University, priority 2020, published 2023).
